system: Bacillus subtilis; test: Antibacterial activity against Bacillus subtilis ATCC 6633 after 24 hrs by microtiter plate assay; type: functional

Row | SMILES | LD99 [µg/mL]
1 | CCCCC(=O)c1c(CC(=O)OC)cc2c(c1O)C(=O)c1c(O)cccc1C2=O [BLANCHAQUINONE] | 6
2 | CCc1ccc2c(O)c3c(c(O)c2c1)C(=O)c1cccc(O)c1C3=O | 13
3 | CC[C@@]1(O)C[C@H](O)c2c(O)c3c(c(O)c2[C@H]1C(=O)OC)C(=O)c1cccc(O)c1C3=O | 0.8
4 | COC(=O)Cc1cc2c(c(O)c1C(C)=O)C(=O)c1c(O)cccc1C2=O | 3
5 | COC(=O)[C@@H]1c2c(O)c3c(c(O)c2[C@@H](O)C[C@@]1(C)O)C(=O)c1c(O)cccc1C3=O | 6
6 | COC(=O)[C@@H]1c2c(O)c3c(c(O)c2[C@@H](O)C[C@]1(O)CC(C)=O)C(=O)c1c(O)cccc1C3=O | 13
